Measurements taken from BindingDB's records for doi:10.1016/0960-894X(95)00111-6 (1995).

Test: Tested for competitive inhibitory activity against beta-Glucosidase

SMILES: CO[C@@H]1O[C@@H](CO)[C@@H](Oc2cccnc2S[C@H]2[C@H](O)[C@H](O)[C@H](OC)O[C@H]2CO)[C@H](O)[C@@H]1O
- Ki: 5.5 mM

SMILES: COC1OC(CO)C(Sc2nc(CO)ccc2O)C(O)C1O (stereo unspecified) [5-(3-Hydroxy-6-hydroxymethyl-pyridin-2-ylsulfanyl)-6-hydroxymethyl-2-methoxy-tetrahydro-pyran-3,4-diol]
- Ki: 4 mM

SMILES: COC1OC(CO)C(Sc2nc(CN(C)C)ccc2O)C(O)C1O (stereo unspecified) [5-(6-Dimethylaminomethyl-3-hydroxy-pyridin-2-ylsulfanyl)-6-hydroxymethyl-2-methoxy-tetrahydro-pyran-3,4-diol]
- Ki: 20 mM

SMILES: COC1OC(CO)C(Sc2ccccn2)C(O)C1O (stereo unspecified) [6-Hydroxymethyl-2-methoxy-5-(pyridin-2-ylsulfanyl)-tetrahydro-pyran-3,4-diol]
- Ki: 8 mM

SMILES: COC1OC(CO)C(Sc2nc(C)ccc2O)C(O)C1O (stereo unspecified) [6-Hydroxymethyl-5-(3-hydroxy-6-methyl-pyridin-2-ylsulfanyl)-2-methoxy-tetrahydro-pyran-3,4-diol]
- Ki: 4.5 mM

SMILES: COC1OC(CO)C(Sc2ncccc2O)C(O)C1O (stereo unspecified) [6-Hydroxymethyl-5-(3-hydroxy-pyridin-2-ylsulfanyl)-2-methoxy-tetrahydro-pyran-3,4-diol]
- Ki: 0.8 mM
